Values after ≈ are worked out from the molar mass of the structure shown.
Legend:
[1] = test system: heat shocked spores from C. sporogenes; test: MIC and MBC, heat shocked spores; type: cell-based; details: Clostridium sporogenes, Example 11 method (Tables 6 and 10)
Procedure: In order to further characterize the antibacterial activities of the fractions with the highest activity, it was important to determine their minimum inhibitory concentration (MIC), defined as the lowest concentration of an antimicrobial that will inhibit the visible growth of a microorganism after overnight incubation. […] But in the case of heat-shocked spores, the differences between nisin and the fractions with Kd of 0.4 were less pronounced, but still presented the desired inhibitory properties against spore germination.
In general terms, MIC is defined as the lowest concentration of an antimicrobial that will inhibit the visible growth of a microorganism after overnight incubation. While the MBC is the lowest concentration of the antimicrobial that will prevent the growth of a microorganism after subculture to fresh agar media free from the antibiotic or antimicrobial agent. The pool of active the fractions was tested at concentrations ranging from 0.005 to 2.5 mg/ml and nisin was used as control.

E. coli = test: Disc inhibition zone, E. coli vegetative cells; type: cell-based; details: isolated compounds at 0.5 mg/ml, Table 9; for zone of inhibition at 500 µg/mL: Escherichia coli
Procedure: (§1) For the antibacterial evaluations, adjusted solutions (5 μL) were transferred to sterile 6-mm diameter discs made from Whatman no. 1 filter paper, so that after solvent evaporation each disc contained 12.5 μg of solids from the enriched avocado seed extract. Experimental controls were treated under the same conditions that the extracts and included negative control discs that contained 5 μL of acetone, and for positive control discs 5 μL of a nisin solution (30 mg/ml in sterile water) were added to provide a residual concentration of 150 μg of nisin in each disc. All test discs were left for about 1-2 hr in a Biological Safety Cabinet to evaporate the solvent. Suspensions of about 0.1 optical density (at 600 nm) containing approximately 1 to 2×10^8 CFU/ml of Clostridium sporogenes (ATCC 7955) vegetative cells, isolated native spores or isolated heat shocked spores were prepared as described in official protocols of Health Canada (Food Directorate, 2010). Aliquots of the suspensions (100 μL) were transferred to Petri dishes containing 15 ml of solid medium (TPGY medium) and spread evenly with a sterile plastic rod. Four discs, each containing 12.5 μg of the test extract, and two more discs (one solvent blank and one nisin positive control) were placed each dish and incubated at 37° C. under anaerobic conditions. The diameter of the inhibition zones (cm) around the discs were measured after 36 hrs.
(§2) In this example, the antimicrobial activities of the same isolated compounds described in Example 10 (Table 5) were tested against the growth of vegetative cells and heat shocked spores of C. sporogenes, and on vegetative cells of S. aureus, P. aeuroginosa, E. coli. and B. subtilis as previously described in Example 1, and at a concentration of 0.5 mg/ml. […] Since it has been reported that persin is able to inhibit fungi spore germination (Prusky et al., 1982), and in the present experiment it seems to have the lowest activity, it can be assumed that the other bioactive compound would have a higher activity against fungi spore.

P. aeuroginosa = test: Disc inhibition zone, P. aeuroginosa vegetative cells; type: cell-based; details: isolated compounds at 0.5 mg/ml, Table 9
Procedure: as §1, §2

B. subtilis = test: Disc inhibition zone, B. subtilis vegetative cells; type: cell-based; details: Bacillus subtilis, isolated compounds at 0.5 mg/ml, Table 9, read-out: Disc inhibition zone, B. Subtillis
Procedure: (§3) For the antibacterial evaluations, adjusted solutions (5 μL) were transferred to sterile 6-mm diameter discs made from Whatman no. 1 filter paper, so that after solvent evaporation each disc contained 12.5 μg of solids from the enriched avocado seed extract. […] All test discs were left for about 1-2 hr in a Biological Safety Cabinet to evaporate the solvent. Suspensions of about 0.1 optical density (at 600 nm) containing approximately 1 to 2×10^8 CFU/ml of Clostridium sporogenes (ATCC 7955) vegetative cells, isolated native spores or isolated heat shocked spores were prepared as described in official protocols of Health Canada (Food Directorate, 2010). Aliquots of the suspensions (100 μL) were transferred to Petri dishes containing 15 ml of solid medium (TPGY medium) and spread evenly with a sterile plastic rod. […] The diameter of the inhibition zones (cm) around the discs were measured after 36 hrs.
(§4) The fractions obtained from Normal phase FCPC, were then used to assess their antimicrobial activities against the growth of vegetative cells from S. aureus and B. subtilis.
(§5) In this example, the antimicrobial activities of the same isolated compounds described in Example 10 (Table 5) were tested against the growth of vegetative cells and heat shocked spores of C. sporogenes, and on vegetative cells of S. aureus, P. aeuroginosa, E. coli. and B. subtilis as previously described in Example 1, and at a concentration of 0.5 mg/ml.

[2] = test system: Clostridium sporogenes (ATCC 7955) vegetative cells; test: microbe, parasite or virus in culture; type: cell-based; details: for zone of inhibition at 500 µg/mL: Clostridium sporogenes, ATCC7955, isolated compounds at 0.5 mg/ml, read-out: Disc Inhibition Zone, Vegetative Cells
Procedure: as §1

[3] = test system: Clostridium sporogenes (ATCC 7955) heat shocked spores; test: microbe, parasite or virus in culture; type: cell-based; details: ATCC7955, isolated compounds at 0.5 mg/ml, read-out: Disc Inhibition Zone, Heat Shocked Spores
Procedure: as §1

[4] = test system: vegetative cells of Listeria monocytogenes; test: Disc inhibition zone, Listeria monocytogenes at refrigeration and optimum temperature; type: cell-based; details: 0.5 mg/ml
S. aureus = test: Disc inhibition zone, S. aureus vegetative cells; type: cell-based; details: isolated compounds at 0.5 mg/ml, Table 9; for zone of inhibition at 500 µg/mL: Staphylococcus aureus
Procedure: as §3, §4, §5

[5] = test system: Colletotrichum gloeosporioides; details: cited from earlier work
Spodoptera exigua = details: in vivo; cited from earlier work
[6] = test system: lactating mammary gland and myocardial fibers of mice; details: cited from earlier work
[7] = test system: silkworm larvae Bombyx mori L.; details: in vivo; cited from earlier work

CCCCC/C=C\C/C=C\CCCCC/C=C/C(=O)C[C@@H](O)COC(C)=O (single isomer, unassigned) [Compound 7]
MIC [1]: 7.8 µg/mL (≈ 20.6 µM)
zone of inhibition at 500 µg/mL (E. coli): 0 mm
Disc inhibition zone, E. coli (E. coli): did not show inhibitory activity
Disc inhibition zone, P. aeuroginosa (P. aeuroginosa): did not show inhibitory activity
zone of inhibition at 500 µg/mL (P. aeuroginosa): 0 mm
zone of inhibition at 500 µg/mL (B. subtilis): 7 mm
zone of inhibition at 500 µg/mL [2]: 16 mm
zone of inhibition at 500 µg/mL [3]: 15 mm
zone of inhibition at 500 µg/mL ([4]; 37° C, 48 hours): 0 mm
zone of inhibition at 500 µg/mL ([4]; 480 h, 4° C., 20 days): 11 mm
zone of inhibition at 500 µg/mL (S. aureus): 0 mm
Disc inhibition zone, S. aureus (S. aureus): did not show inhibitory activity

CCCCCCCCCCCCC/C=C/C(=O)C[C@@H](O)COC(C)=O [Compound 9A, (5E)-1-acetoxy-2-hydroxy-5-nonadecen-4-one]
MIC [1]: 7.8 µg/mL (≈ 22 µM)
zone of inhibition at 500 µg/mL (E. coli): 0 mm
Disc inhibition zone, E. coli (E. coli): did not show inhibitory activity
Disc inhibition zone, P. aeuroginosa (P. aeuroginosa): did not show inhibitory activity
zone of inhibition at 500 µg/mL (P. aeuroginosa): 0 mm
zone of inhibition at 500 µg/mL (B. subtilis): 0 mm
zone of inhibition at 500 µg/mL [2]: 19 mm
zone of inhibition at 500 µg/mL [3]: 17 mm
zone of inhibition at 500 µg/mL ([4]; 37° C, 48 hours): 0 mm
zone of inhibition at 500 µg/mL ([4]; 480 h, 4° C., 20 days): 10 mm
zone of inhibition at 500 µg/mL (S. aureus): 0 mm
Disc inhibition zone, S. aureus (S. aureus): did not show inhibitory activity

CC/C=C/CCCCCCCCC/C=C/C(=O)C[C@@H](O)COC(C)=O (single isomer, unassigned) [Compound 6]
MIC [1]: 15.6 µg/mL (≈ 44.3 µM)
zone of inhibition at 500 µg/mL (E. coli): 0 mm
Disc inhibition zone, E. coli (E. coli): did not show inhibitory activity
Disc inhibition zone, P. aeuroginosa (P. aeuroginosa): did not show inhibitory activity
zone of inhibition at 500 µg/mL (P. aeuroginosa): 0 mm
zone of inhibition at 500 µg/mL (B. subtilis): 13 mm
zone of inhibition at 500 µg/mL [2]: 19 mm
zone of inhibition at 500 µg/mL [3]: 17 mm
zone of inhibition at 500 µg/mL ([4]; 37° C, 48 hours): 0 mm
zone of inhibition at 500 µg/mL ([4]; 480 h, 4° C., 20 days): 11 mm
zone of inhibition at 500 µg/mL (S. aureus): 0 mm
Disc inhibition zone, S. aureus (S. aureus): did not show inhibitory activity

CCCCC/C=C\C/C=C\CCCCCCCC(=O)C[C@@H](O)COC(C)=O [Compound 9B, (R, 12Z, 15Z)-1-acetoxy-2-hydroxy-4-oxo-heneicosa-12,15-diene]
concentration inhibiting fungi spore germination completely [5]: 790 µg/mL
concentration of diet with inhibitory effects on feeding (Spodoptera exigua): 400 µg/g
concentration of diet with inhibitory effects on larval growth (Spodoptera exigua): 200 µg/g
dose rate inducing lactating mammary gland necrosis [6]: 60 to 100 mg/kg
doses at which necrosis of myocardial fibers may occur [6]: above 100 mg/kg
zone of inhibition at 500 µg/mL [2]: 10 mm
antimicrobial activity reduced compared with persenone A ([2]; lack of C5-C6 double bond, 0.5 mg/ml): 37.5%
zone of inhibition at 500 µg/mL [3]: 6 mm
concentration in the artificial diet inhibiting larval feeding [7]: ≥ 200 µg/g
zone of inhibition at 500 µg/mL ([4]; 37° C, 48 hours): 0 mm
zone of inhibition at 500 µg/mL ([4]; 480 h, 4° C., 20 days): 0 mm

C=CCCCCCCCCCCC[C@H](O)C[C@H](O)COC(C)=O [Compound 3, (2S, 4S)-1-acetoxy-2,4-dihydroxy-n-heptadeca-16-ene]
bioactivity fold lower than that of persin [5]: 3 fold
zone of inhibition at 500 µg/mL [2]: 11 mm
zone of inhibition at 500 µg/mL [3]: 10 mm
zone of inhibition at 500 µg/mL ([4]; 37° C, 48 hours): 0 mm
zone of inhibition at 500 µg/mL ([4]; 480 h, 4° C., 20 days): 0 mm

C=C/C=C/CCCCCCCCCCCC(=O)C[C@@H](O)COC(C)=O [Compound 5, (2R, 16E)-1-acetoxy-2-hydroxy-4-oxo-nonadeca-16,18-diene]
zone of inhibition at 500 µg/mL [2]: 10 mm
zone of inhibition at 500 µg/mL [3]: 11 mm
zone of inhibition at 500 µg/mL ([4]; 37° C, 48 hours): 0 mm
zone of inhibition at 500 µg/mL ([4]; 480 h, 4° C., 20 days): 0 mm

— US10582707B2, “Antimicrobial antibacterial and spore germination inhibiting activity from an avocado extract enriched in bioactive compounds” (priority 2010, dated 2020)
